# What was measured:
# [1] = test system: PBMC (human Peripheral Blood Mononuclear Cells); assay: Cytotoxicity in PHA-stimulated proliferating PBMC; type: cell-based; details: 24 h, trypan blue, only at high doses
# Method: To ensure logarithmic growth, cells were subcultured every two days. As control cells, human peripheral blood mononuclear cells (PBMC) were isolated from buffy coats of healthy donors (kindly provided by the Blood Center of the Hospital of Battipaglia, Salerno, Italy) by using standard Ficoll−Hypaque gradients. […] Proliferation of PBMC was induced by phytohemagglutinin (PHA) (10 µg mL^−1). […] Stock solutions of geraniin (50 mM in DMSO) and 17-AAG (10 mM in DMSO) were stored a −20°C in the dark and diluted just before addition to the sterile culture medium. In all the experiments, the final concentration of DMSO was 0.10% (v/v).
# The number of viable cells was determined by using a [3–4,5-dimethyldiazol-2-yl]-2,5-diphenyl tetrazolium bromide (MTT, Sigma-Aldrich) conversion assay, according to the method described by Mosmann. Briefly, following the treatment, 25 µL of MTT (5 mg/mL in PBS) was added and the cells were incubated for additional 3 h at 37°C. Thereafter, cells were lysed and suspended with 100 µL of buffer containing 50% (v/v) N,N-dimethylformamide, 20% SDS (pH 4.5). The absorbance was measured with a microplate reader (Titertek multiskan MCC7340, LabSystems, Vienna, VA, USA) equipped with a 620 nm filter. Cell population growth inhibition was tested by cytometric counting (trypan blu exclusion).
# [2] = test system: HeLa cells; assay: MTT cell viability, HeLa; type: cell-based, human; details: Homo sapiens, 24 h
# Method: To ensure logarithmic growth, cells were subcultured every two days. As control cells, human peripheral blood mononuclear cells (PBMC) were isolated from buffy coats of healthy donors (kindly provided by the Blood Center of the Hospital of Battipaglia, Salerno, Italy) by using standard Ficoll−Hypaque gradients. […] Proliferation of PBMC was induced by phytohemagglutinin (PHA) (10 µg mL^−1). Tumor and PBMC cells were treated with different concentrations of geraniin or 17-AAG to evaluate their cytotoxic effects. Stock solutions of geraniin (50 mM in DMSO) and 17-AAG (10 mM in DMSO) were stored a −20°C in the dark and diluted just before addition to the sterile culture medium. In all the experiments, the final concentration of DMSO was 0.10% (v/v).
# Jurkat (2×10^4/well) and HeLa (5000/well) cells were seeded in triplicate in 96 well−plates and incubated for 24 h in the absence or presence of different concentrations of geraniin (between 0,5 µM to 50 µM) or 17-AAG (between 0,5 nM to 10 µM).
# The number of viable cells was determined by using a [3–4,5-dimethyldiazol-2-yl]-2,5-diphenyl tetrazolium bromide (MTT, Sigma-Aldrich) conversion assay, according to the method described by Mosmann. […] The absorbance was measured with a microplate reader (Titertek multiskan MCC7340, LabSystems, Vienna, VA, USA) equipped with a 620 nm filter. […]
# [3] = target: T1, recombinant Hsp90α (Homo sapiens, UniProt P07900); assay: Limited proteolysis-mass spectrometry of Hsp90α/geraniin complex; details: trypsin or chymotrypsin, 5:1 molar excess of geraniin, 37°C
# T1 construct: purchased Assay Designs (Ann Arbor, MI, USA)
# Method: Limited proteolysis experiments were performed on recombinant Hsp90α at 37°C, PBS 0.1% DMSO, using trypsin or chymotrypsin as proteolytic agents; 30 µL of a 3 µM Hsp90α solution were used for each experiment. Binary complex Hsp90α/geraniin was formed by incubating the protein with a 5∶1 molar excess of geraniin at 37°C for 15 min prior to proteolytic enzyme addition. Both Hsp90 and Hsp90/geraniin complex were digested using a 1∶100 (w/w) enzyme to substrate ratio. The extent of the reactions was monitored on a time−course basis by sampling the incubation mixture after 5, 15, and 30 min of digestion. Samples were analyzed by MALDITOF/MS using a MALDI micro MX (Waters). Mass data were elaborated using the Masslynx software (Waters). Preferential hydrolysis sites on Hsp90α under different conditions were identified on the basis of the fragments released during enzymatic digestion.
# In an effort to identify the Hsp90α region involved in geraniin binding, a limited proteolysis−mass spectrometry−based strategy was used for the structural analysis of the Hsp90α/geraniin complex. This approach is based on the evidence that exposed, weakly structured, and flexible regions of a protein can be recognized by a proteolytic enzyme, [30]. […]
# [4] = test system: HeLa cells; assay: Cell cycle and hypodiploidy by flow cytometry (PI), HeLa; type: cell-based, human; details: 24 h, geraniin 5 µM, 17-AAG 0.2 µM
# Method: Cell DNA content was measured by propidium iodide (PI) incorporation into permeabilized cells, as described by Nicoletti et al.. Briefly, the cells were harvested after geraniin or 17-AAG treatments were washed with cold PBS and incubated with a PI solution (0.1% sodium citrate, 0.1% Triton X-100 and 50 µg mL^−1 of prodium iodide, Sigma-Aldrich, 10 µg/ml Rnase A) for 30 min at room temperature. Data from 10.000 events per sample were collected by a FACScalibur flow cytometer (Becton Dickinson, San José, CA) and cellular debris was excluded from analysis by raising the forward scatter threshold. The percentage of cells in the sub G0/G1 phase, apoptotic fraction, was quantified using CellQuest software (Becton Dickinson). The distribution of cells in G0/G1, S, G2/M phases was determined using ModFit LT cell cycle analysis software (Becton Dickinson). Results were expressed as a mean ± SD of three experiments performed in triplicate.
# Figure 6 Effects of geraniin and 17-AAG on cell cycle progression. Percentage of cell cycle stages was analyzed by flow cytometry, (A) PI-stained viable Jurkat cells treated with DMSO, 0.7 µM geraniin or 10 µM 17-AAG for 24 h.
smiles,measurement,setting,value
"O=C1O[C@H]2[C@@H]3OC(=O)c4cc(O)c(O)c(O)c4-c4c(cc(O)c(O)c4O)C(=O)OC[C@H]2O[C@@H](OC(=O)c2cc(O)c(O)c(O)c2)[C@@H]3OC(=O)c2cc(O)c(O)c3c2[C@@H]2C1=CC(=O)[C@](O)(O3)C2(O)O [Compound 54, geraniin]",cytotoxic effects in control PBMC,[1],Minimal cytotoxic effects
same,IC50,[2],5.1 ± 0.2 µM
same,Hsp90α region involved in binding,[3],overall protection of the N−terminal region from proteolysis
same,cell cycle arrest,[4],G2/M arrest
same,percentage of cells with hypodiploid nuclei,[4],16.2±0.7%
